# In patent US20060009618A1, “Expression receptors with 7 transmembrane domains in baculovirus-insect cell system” (priority 2002, published 2006):
# T1: HA-Gα16 (Gα16 protein with N-terminal HA epitope), expressed in Sf9 cells (human, UniProt P30679 1-374)
# T1 construct: whole, on cells; Intracellular protein with a submembrane cytoplasmic location in infected Sf9 cells; also called Ga16; G16
# T1 sequence (looked up): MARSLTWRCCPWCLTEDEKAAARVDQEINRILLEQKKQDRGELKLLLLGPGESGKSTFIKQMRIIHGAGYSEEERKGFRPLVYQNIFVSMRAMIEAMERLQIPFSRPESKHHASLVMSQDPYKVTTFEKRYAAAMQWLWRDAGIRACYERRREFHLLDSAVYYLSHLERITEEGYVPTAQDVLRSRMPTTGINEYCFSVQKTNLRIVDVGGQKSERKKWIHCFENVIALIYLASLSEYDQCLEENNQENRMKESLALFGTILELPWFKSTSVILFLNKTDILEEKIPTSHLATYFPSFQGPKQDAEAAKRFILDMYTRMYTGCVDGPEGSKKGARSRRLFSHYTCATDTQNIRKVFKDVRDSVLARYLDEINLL
# What was measured:
# non-infected Sf9 cells = experiment: Calcium imaging (fura-2) in non-infected Sf9 cells; type: cell-based, Spodoptera frugiperda; details: ionophore at 5 μM, FIG. 2 top graph
# Experimental: In a first series of experiments, the possibility of measuring the calcium response in Sf9 cells using the calcium imaging technique was tested.
# The protocol used for the assays is as follows:
# (§1) Sf9 cells are cultured on 24-well plates containing 12 mm coverslips. Before the experiments, the culture medium is removed and washed with a buffer containing 10 mM of NaCl, 60 mM of KCl, 25 mM of MgCl2, 1.8 mM of CaCl2, 4 mM of D-glucose, 110 mM of sucrose and 10 mM of 2-(N-morpholino)ethanesulfonic acid; the pH is adjusted to 6.2 at ambient temperature with Trizma base.
# The cells are incubated for 1 hour at ambient temperature in the dark with a solution of MBS containing fura 2-AM (4 μm) (molecular probe). […]
# (§2) The fura-2 fluorescence measurements are carried out using a T.I.L.L Photonics GmbH, (Planegg) Polychrome II multipath wavelength illumination system for extinction. […] The acquisition and the calculation of the fluorescence images are carried out using the T.I.L.L-Vision program. […] The fluorescence ratios (f340/f380) are calculated for the intracellular Ca^2+ variations. […]
# The Ca^2+ signals are the result of the mean determined on all the cells in the field of the camera (gray signal) and of the mean for the responding cells (black signal) (n=4).
# [1] = tested on: octopamine receptor naturally present in Sf9 cells; experiment: Octopamine control, calcium imaging (fura-2) in Sf9 cells; type: cell-based, Spodoptera frugiperda; details: 50 μM
# Experimental: as §1
# The cells are incubated for 1 hour at ambient temperature in the dark with a solution of MBS containing fura 2-AM (4 μm) (molecular probe). The cells are then washed with an excess of MBS without fura 2-AM and mounted in a Coverwell chamber (Polylabo, France) (diameter: 9 mm; thickness: 2.5 mm; cross section: 22.5).
# The chamber is placed under the microscope and the cells are perfused under gravity with 0.85 ml/min (3.78 cm/min) at ambient temperature (23° C.).
# as §2, with “extinction. The microscope (Olympus) is equipped with a long-distance objective (×20). The spatio-temporal Ca^2+ distributions are studied using a PCO interline camera.” for “extinction.”
# [2] = molecular target: T1, HA-Gα16 (Gα16 protein with N-terminal …); experiment: colocalization by immunofluorescence, confocal microscopy, Sf9 cells infected with double-recombinant baculovirus
# Experimental: The cellular location of the ORs and of the G proteins were studied by immunofluorescence 36 hours after infection. The ORs are detected by means of an anti-FLAG primary antibody and an FITC-labeled secondary antibody. The G proteins are detected by means of a rhodamine-labeled anti-HA antibody.
# The labeled cells are observed by confocal microscopy. In the cells infected with the AcMNPV209 and AcMNPV210 baculoviruses, labeling is observed to be located at the cell surface, with a punctate distribution typical of membrane receptors. In the cells infected with the AcSLP10G₁₆ and AcSLP10Golf baculoviruses, labeling is observed to have a submembrane cytoplasmic location. In the cells infected with the double-recombinant baculoviruses AcG₁₆-209, AcGolf-210, AcG₁₆-209 and AcGolf-210, colocalization of the receptor with each G protein co-expressed is observed. No major difference is observed between OR17-209 and OR17-210 as regards preferential binding with Golf or G₁₆. It therefore appears that these two receptors are capable of coupling to the two G proteins in insect cells.
molecule,measurement,setting,value
"CNc1c(Br)cc2oc(C[C@H]3O[C@@]4(CC[C@H]3C)O[C@H]([C@H](C)C(=O)c3ccc[nH]3)[C@H](C)C[C@H]4C)nc2c1C(=O)O [4-bromo A23187, 4-bromo-A23187]",intracellular Ca2+ variation (fluorescence ratio f340/f380),non-infected Sf9 cells,induces a large increase in intracellular calcium
NCC(O)c1ccc(O)cc1 (stereo not shown) [octopamine],intracellular calcium,"[1]; all baculovirus-infected Sf9 cells (OR17-209 or OR17-210 alone, with G16 or with Golf), 36 hours after infection, FIG. 3",induces an increase in intracellular calcium
same,intracellular Ca2+ variation (fluorescence ratio f340/f380),"[1]; non-infected Sf9 cells, FIG. 2 bottom graph, B",induces an increase in intracellular calcium
"human olfactory receptor OR17-209 with N-terminal FLAG epitope, expressed in Sf9 cells from baculovirus AcMNPV209 (receptor, UniProt P47890 1-313, looked up, not shown: small tags and cut ends, whole, on cells; The construct encodes EGT signal peptide, FLAG and receptor; also called OR-209) MEGKNLTSISECFLLGFSEQLEEQKPLFGSFLFMYLVTVAGNLLIILVIITDTQLHTPMYFFLANLSLADACFVSTTVPKMLANIQIQSQAISYSGCLLQLYFFMLFVMLEAFLLAVMAYDCYVAICHPLHYILIMSPGLCIFLVSASWIMNALHSLLHTLLMNSLSFCANHEIPHFFCDINPLLSLSCTDPFTNELVIFITGGLTGLICVLCLIISYTNVFSTILKIPSAQGKRKAFSTCSSHLSVVSLFFGTSFCVDFSSPSTHSAQKDTVASVMYTVVTPMLNPFIYSLRNQEIKSSLRKLIWVRKIHSP",binding result,[2],binds
